Laboratory results from patent US6825170B2, “6-O-acyl ketolide antibacterials” (Ortho-McNeil Pharmaceutical, Inc., priority 2001, dated 2004).
Converted amounts (≈) assume the structure as drawn.

Key:
Assay in all cases: MIC, microdilution broth method (NCCLS)
Type in all cases: cell-based
Conditions in all cases: 35° C., 16-20 hours
E. faecalis ATCC29212 = system: E. faecalis ATCC29212
Experimental: (§1) Minimal inhibitory concentration (MIC) has been an indicator of in vitro antibacterial activity widely used in the art. The in vitro antimicrobial activity of the compounds was determined by the microdilution broth method following the test method from the National Committee for Clinical Laboratory Standards (NCCLS). This method is described in the NCCLS Document M7-A4, Vol.17, No.2, “Methods for Dilution Antimicrobial Susceptibility Test for Bacteria that Grow Aerobically—Fourth Edition”, which is incorporated herein by reference.
(§2) In this method two-fold serial dilutions of drug in cation adjusted Mueller-Hinton broth are added to wells in microdilution trays. The test organisms are prepared by adjusting the turbidity of actively growing broth cultures so that the final concentration of test organism after it is added to the wells is approximately 5×10^4 CFU/well.
(§3) Following inoculation of the microdilution trays, the trays are incubated at 35° C. for 16-20 hours and then read. […] The amount of growth in the wells containing the test compound is compared with the amount of growth in the growth-control wells (no test compound) used in each tray. As set forth in Table 1, compounds of the present invention were tested against a variety of Gram positive and Gram negative pathogenic bacteria resulting in a range of activities depending on the organism tested.

H. influenzae ATCC49247 = system: H. influenzae ATCC49247
Experimental: as §1, §2, §3

S. aureus ATCC29213 = system: S. aureus ATCC29213
Experimental: as §1, §2, §3

S. pneumoniae ATCC49619 = system: S. pneumoniae ATCC49619
Experimental: as §1, §2, §3

Row | Structure (SMILES) | MIC (C: E. faecalis ATCC29212) (E. faecalis ATCC29212) [µg/mL] | MIC (E: H. influenzae ATCC49247) (H. influenzae ATCC49247) [µg/mL] | MIC (B: S. aureus ATCC29213) (S. aureus ATCC29213) [µg/mL] | MIC (D: S. pneumoniae ATCC49619) (S. pneumoniae ATCC49619)
1 | CCC1OC(=O)C(C)C(=O)C(C)C(OC2OC(C)CC(N(C)C)C2O)C(C)(OC(=O)OCC=Cc2cccc(-c3ncccn3)c2)CC(C)C(=O)C(C)C2NC(=O)OC12C (centres unmarked) [Compound 15] | 0.06 (≈ 0.0717 µM) | 0.5 (≈ 0.597 µM) | 0.12 (≈ 0.143 µM) | 0.03 µg/mL (≈ 0.0358 µM)
2 | CCC1OC(=O)C(C)C(=O)C(C)C(OC2OC(C)CC(N(C)C)C2O)C(C)(OC(=O)OCC=Cc2ccc(-c3cnccn3)cc2)CC(C)C(=O)C(C)C2NC(=O)OC12C (centres unmarked) [Compound 19] | 0.06 (≈ 0.0717 µM) | – | 0.12 (≈ 0.143 µM) | ≦0.015 μg/mL
3 | CCC1OC(=O)C(C)C(=O)C(C)C(OC2OC(C)CC(N(C)C)C2O)C(C)(OC(=O)OCC=Cc2ccc(-n3cccn3)cc2)CC(C)C(=O)C(C)C2NC(=O)OC12C (centres unmarked) [Compound 21] | 0.06 (≈ 0.0727 µM) | – | 0.12 (≈ 0.145 µM) | ≦0.015 μg/mL
4 | CCC1OC(=O)C(C)C(=O)C(C)C(OC2OC(C)CC(N(C)C)C2O)C(C)(OC(=O)OCC=Cc2ccc(-n3cncn3)cc2)CC(C)C(=O)C(C)C2NC(=O)OC12C (centres unmarked) [Compound 22] | 0.06 (≈ 0.0726 µM) | 0.5 (≈ 0.605 µM) | 0.25 (≈ 0.303 µM) | ≦0.015 μg/mL
5 | CCC1OC(=O)C(C)C(=O)C(C)C(OC2OC(C)CC(N(C)C)C2O)C(C)(OC(=O)OCC=Cc2ccc(-n3ccnn3)cc2)CC(C)C(=O)C(C)C2NC(=O)OC12C (centres unmarked) [Compound 24] | 0.06 (≈ 0.0726 µM) | 1 (≈ 1.21 µM) | 0.12 (≈ 0.145 µM) | ≦0.015 μg/mL
6 | CCC1OC(=O)C(C)C(=O)C(C)C(OC2OC(C)CC(N(C)C)C2O)C(C)(OC(=O)OCC=Cc2ccc(-c3ccn(C)n3)cc2)CC(C)C(=O)C(C)C2NC(=O)OC12C (centres unmarked) [Compound 26] | 0.12 (≈ 0.143 µM) | 2 (≈ 2.38 µM) | 0.25 (≈ 0.298 µM) | 0.03 µg/mL (≈ 0.0358 µM)
7 | CCC1OC(=O)C(C)C(=O)C(C)C(OC2OC(C)CC(N(C)C)C2O)C(C)(OC(=O)OCC=Cc2ccc(-n3cccn3)cc2F)CC(C)C(=O)C(C)C2NC(=O)OC12C (centres unmarked) [Compound 30] | 0.06 (≈ 0.0712 µM) | 1 (≈ 1.19 µM) | 0.12 (≈ 0.142 µM) | ≦0.015 μg/mL
8 | CCC1OC(=O)C(C)C(=O)C(C)C(OC2OC(C)CC(N(C)C)C2O)C(C)(OC(=O)OCC=Cc2ccc3ncccc3c2)CC(C)C(=O)C(C)C2NC(=O)OC12C (centres unmarked) [Compound 40] | 0.06 (≈ 0.0741 µM) | – | 0.12 (≈ 0.148 µM) | 0.06 µg/mL (≈ 0.0741 µM)
9 | CCC1OC(=O)C(C)C(=O)C(C)C(OC2OC(C)CC(N(C)C)C2O)C(C)(OC(=O)OCC=Cc2ccc3nccnc3c2)CC(C)C(=O)C(C)C2NC(=O)OC12C (centres unmarked) [Compound 44] | 0.06 (≈ 0.074 µM) | – | 0.12 (≈ 0.148 µM) | ≦0.015 μg/mL
10 | CCC1OC(=O)C(C)C(=O)C(C)C(OC2OC(C)CC(N(C)C)C2O)C(C)(OC(=O)OCCCc2ccc(-c3ncccn3)cc2)CC(C)C(=O)C(C)C2NC(=O)OC12C (centres unmarked) [Compound 139] | 0.06 (≈ 0.0715 µM) | – | 0.12 (≈ 0.143 µM) | 0.12 µg/mL (≈ 0.143 µM)
11 | CCC1OC(=O)C(C)(F)C(=O)C(C)C(OC2OC(C)CC(N(C)C)C2O)C(C)(OC(=O)OCC=Cc2ccc(-c3ncccn3)cc2)CC(C)C(=O)C(C)C2NC(=O)OC12C (centres unmarked) [Compound 288] | 0.12 (≈ 0.14 µM) | – | 0.25 (≈ 0.292 µM) | 0.06 µg/mL (≈ 0.0702 µM)
12 | CCC1OC(=O)C(C)C(=O)C(C)C(OC2OC(C)CC(N(C)C)C2O)C(C)(OC(=O)NOCCc2ccc(-c3cnccn3)cc2)CC(C)C(=O)C(C)C2NC(=O)OC12C (centres unmarked) [Compound 578] | 0.25 (≈ 0.298 µM) | – | 0.5 (≈ 0.595 µM) | 0.12 µg/mL (≈ 0.143 µM)
13 | CCC1OC(=O)C(C)C(=O)C(C)C(OC2OC(C)CC(N(C)C)C2O)C(C)(OC(=O)NOCC#Cc2ccc(-c3ncccn3)cc2)CC(C)C(=O)C(C)C2NC(=O)OC12C (centres unmarked) [Compound 602] | 0.12 (≈ 0.141 µM) | – | 0.25 (≈ 0.294 µM) | 0.03 µg/mL (≈ 0.0353 µM)
14 | CCC1OC(=O)C(C)C(=O)C(C)C(OC2OC(C)CC(N(C)C)C2O)C(C)(OC(=O)NOCC=Cc2ccc(-c3cnccn3)cc2)CC(C)C(=O)C(C)C2NC(=O)OC12C (centres unmarked) [Compound 606] | 0.12 (≈ 0.141 µM) | – | 0.25 (≈ 0.293 µM) | 0.06 µg/mL (≈ 0.0704 µM)
15 | CCC1OC(=O)C(C)C(=O)C(C)C(OC2OC(C)CC(N(C)C)C2O)C(C)(OC(=O)NOCC=Cc2ccc(-c3cccnn3)cc2)CC(C)C(=O)C(C)C2NC(=O)OC12C (centres unmarked) [Compound 607] | 0.25 (≈ 0.293 µM) | – | 0.25 (≈ 0.293 µM) | 0.03 µg/mL (≈ 0.0352 µM)
16 | CC[C@H]1OC(=O)[C@H](C)C(=O)[C@H](C)[C@@H](O[C@@H]2O[C@H](C)C[C@H](N(C)C)[C@H]2O)[C@](C)(OC(=O)NOC/C=C/c2cccnc2)C[C@@H](C)C(=O)[C@H](C)[C@H]2NC(=O)O[C@@]21C [Compound 615] | 0.25 (≈ 0.323 µM) | – | 1 (≈ 1.29 µM) | 0.06 µg/mL (≈ 0.0774 µM)
17 | CC[C@H]1OC(=O)[C@H](C)C(=O)[C@H](C)[C@@H](O[C@@H]2O[C@H](C)C[C@H](N(C)C)[C@H]2O)[C@](C)(OC(=O)NOC/C=C/c2cccc(-c3ncccn3)c2)C[C@@H](C)C(=O)[C@H](C)[C@H]2NC(=O)O[C@@]21C [Compound 616] | 0.25 (≈ 0.293 µM) | – | 0.5 (≈ 0.587 µM) | 0.06 µg/mL (≈ 0.0704 µM)
18 | CC[C@H]1OC(=O)[C@H](C)C(=O)[C@H](C)[C@@H](O[C@@H]2O[C@H](C)C[C@H](N(C)C)[C@H]2O)[C@](C)(OC(=O)NOC/C=C/c2ccc(-c3ccccn3)cc2)C[C@@H](C)C(=O)[C@H](C)[C@H]2NC(=O)O[C@@]21C [Compound 617] | 0.12 (≈ 0.141 µM) | – | 0.25 (≈ 0.294 µM) | 0.03 µg/mL (≈ 0.0353 µM)
19 | CC[C@H]1OC(=O)[C@H](C)C(=O)[C@H](C)[C@@H](O[C@@H]2O[C@H](C)C[C@H](N(C)C)[C@H]2O)[C@](C)(OC(=O)NOC/C=C/c2ccc(-n3cccn3)cc2)C[C@@H](C)C(=O)[C@H](C)[C@H]2NC(=O)O[C@@]21C [Compound 619] | 0.12 (≈ 0.143 µM) | – | 0.25 (≈ 0.298 µM) | 0.03 µg/mL (≈ 0.0357 µM)
20 | CC[C@H]1OC(=O)[C@H](C)C(=O)[C@H](C)[C@@H](O[C@@H]2O[C@H](C)C[C@H](N(C)C)[C@H]2O)[C@](C)(OC(=O)NOC/C=C/c2cnc3ccccc3c2)C[C@@H](C)C(=O)[C@H](C)[C@H]2NC(=O)O[C@@]21C [Compound 620] | 0.12 (≈ 0.145 µM) | – | 0.5 (≈ 0.606 µM) | 0.03 µg/mL (≈ 0.0364 µM)
21 | CC[C@H]1OC(=O)[C@H](C)C(=O)[C@H](C)[C@@H](O[C@@H]2O[C@H](C)C[C@H](N(C)C)[C@H]2O)[C@](C)(OC(=O)N(C)OCCc2ccc(-c3ncccn3)cc2)C[C@@H](C)C(=O)[C@H](C)[C@H]2NC(=O)O[C@@]21C [Compound 621] | 0.25 (≈ 0.293 µM) | – | 1 (≈ 1.17 µM) | 0.12 µg/mL (≈ 0.141 µM)
